Measured values published in patent US4430328A, “Ruminant lactation improvement” (Eli Lilly and Company, priority 1982, dated 1984).

Legend:
Holstein cows = experiment: nine-week comparative activity and persistency test of glycopeptides; assay type: in vivo; settings: 600 mg/head/day
Experimental: Another test was carried out to determine the comparative activity of glycopeptides and their persistency in altering milk production. Holstein cows were assigned as they calved to blocks of […] cows each. Within each block a random order of treatments was assigned. A nine-week study was started two weeks following calving. All cows underwent a one week preliminary period during which they received corn silage-concentrate, grain, hay and water. During the following eight week period, in addition to the normal feed ration, one group of six animals received no treatment (controls), another group of six animals received 600 mg/head/day actaplanin, and a third group of six cows received 600 mg/head/day of glycopeptide A35512B. Average daily milk production, milk composition, and persistency of milk production were analyzed. The data in Table VI are the averages for the daily determinations for the entire nine week trial period. The table reports average milk production and milk composition of nontreated controls and treated groups. The persistency values were calculated by dividing the average milk production during the eight week treatment period by average production during the preliminary non-treatment period. Persistency values express how well the treatment groups performed after initialization of treatment compared to performance before treatment initialization. Normal persistency for the trial was expected to be about 94 to about 96 percent. All treatment groups had higher persistencies, thus indicating an observable response to treatment even during a short term.

dairy cows = settings: cited from earlier work

Row | Structure (SMILES) | Milk Composition Fat (Holstein cows) | Milk Composition Protein (Holstein cows) | Milk Composition Solids (Holstein cows) | protein content compared to non-treated controls (Holstein cows) | Milk Produced (Holstein cows; average of daily determinations, nine week trial) | Persistency (Holstein cows; average production in eight week treatment period divided by preliminary period) | fat content of milk (dairy cows) | fat-corrected-milk production (dairy cows) | volume of milk produced (dairy cows)
1 | COC(=O)[C@H]1NC(=O)[C@H]2NC(=O)[C@H](NC(=O)[C@@H]3NC(=O)C4NC(=O)[C@H](NC(=O)[C@H](N)c5cccc(O)c5Oc5cc(O[C@@H]6O[C@H](C)[C@H](O)[C@H](O)[C@@H]6O)c(Cl)c4c5)[C@H](O)c4ccc(cc4)Oc4cc3cc(c4O[C@@H]3O[C@H](CO)[C@@H](O)[C@@H](O[C@@H]4O[C@@H](C)[C@@H](O)[C@@H](O)[C@H]4O)[C@H]3O)Oc3ccc(cc3)[C@H]2O[C@H]2C[C@](C)(N)[C@H](O)[C@H](C)O2)c2ccc(O[C@H]3O[C@@H](CO)[C@H](O)[C@@H](O)[C@@H]3O)c(c2)-c2c(O)cc(O)cc21 [A35512B] | 3.36% | 3.36% | 11.44% | may be enhanced | 56.0 pounds/day | 99.4% |  |  | 
2 | CC[C@@]1([C@@H]2O[C@@H]([C@H]3O[C@@](O)(CO)[C@H](C)C[C@@H]3C)C[C@@H]2C)CC[C@H]([C@]2(C)CC[C@]3(C[C@H](O)[C@@H](C)[C@@H]([C@@H](C)[C@@H](OC)[C@H](C)C(=O)O)O3)O2)O1 [monensin] |  |  |  |  |  |  | significantly reduced | unchanged | increase
